Where “and” joins values, the source holds several entries; their conditions need not be identical. Equal entries are not always repeated.

Data set [1] is described as follows: Lung retention study of liposomal TKI in healthy mice. The conditions noted are these: IT, 3.74 mg/mL, after two hours. The class given is in vivo. The protocol: (§1) A lung retention study of liposomal TKI in healthy mice was conducted to compare the residence times of free form versus liposomal TKI formulations in the mouse lung.
The test system of a further data set is IPF. The conditions noted are these: cited from earlier work.
Data set [2] deals with bleomycin-induced pulmonary fibrosis in mice. Briefly: Efficacy of liposomal and oral nintedanib in an IPF animal model, histopathological evaluation of lung tissue. The data set is classed as in vivo. As to conditions: 60 mg/kg, oral, QD ×10, Day 21, listed as free nintedanib. The method, then:
Q2D×4 signifies one dose administered every other day on day 7, 9, 15, and 17. QD×10 signifies mice received once daily dosing on day 7, 8, 9, 10, 11, 14, 15, 16, 17, and 18. Blood and lung tissue samples were collected on day 21.
Efficacy was determined by histopathological evaluation of mouse lung tissue.
Degree of lesions stained with HE was graded from one to five depending on severity: […]

Data set [3] is described as follows: Lung retention of nintedanib in an IPF animal model. As to conditions: fibrotic mice, once-daily oral dosing of 60 mg/kg. The data set is classed as in vivo. The protocol: First, pulmonary fibrosis was induced by IT instillation of 2.5 mg/kg bleomycin to each mouse. […] Q2D×2 signifies one dose administered every other day for a total of two doses. Blood and lung tissue samples were collected at predetermined time points (Table 7).

In the next data set the test system is C57BL/6 mice. Briefly: Observations of mice (mortality) during lung retention study. As to conditions: healthy mice, IT 50 μL, 3.74 mg/mL nintedanib. The class given is in vivo. The method, then: as §1

For `COC(=O)c1ccc2c(c1)NC(=O)/C2=C(\Nc1ccc(N(C)C(=O)CN2CCN(C)CC2)cc1)c1ccccc1` [nintedanib], the “Drug retained in the lung” value in data set [1] is on record as “almost none of the drug was retained in the lung”. In addition, the “Undesired side effects of oral treatment” value with IPF (current therapeutic amount) was “diarrhea (most frequent adverse event), nausea, stomach pain, liver problems, vomiting, decreased appetite, headache, weight loss, and high blood pressure”. In the data set with IPF (oral, 150 mg twice a day, clinical trials), the “Reduction of lung function decline (increased forced vital capacity) compared to placebo” value is listed as “approximately 50%”. For the same compound, the “Mean score (fibrosis)” value in data set [2] (per animal (No. 4 to 6)) is ~2 and 2.0 and 1.4. The “Interstitial and subpleural, multifocal fibrosis scores” value in data set [2] (single scores per animal (No. 4 to 6)) is 2 (2=slight (1-25%)) (12×) and 1 (1=minimal (<1%)) (3×). The “Drug retention in mouse lung” value in data set [3] is “no nintedanib was detected in lung tissue after just a few hours”. Also, the “Observation of surviving mice” value with C57BL/6 mice is reported as “mice were very weak)”. Also, the Mortality with C57BL/6 mice (deaths/mice) was 2/9 (the 7 surviving.

The values above are taken from patent US12533313B2, “Inhalable liposomal sustained release composition for use in treating pulmonary diseases” (INSPIRMED CORP., priority 2018, dated 2026).
